Values quoted from earlier work in patent US20250032516A1, “COMPOSITIONS AND METHODS FOR TREATING EPILEPSY” (POVIVA CORP, priority 2023, published 2025).
Where two headings read alike, the source gives them in different places.

Conditions: children with Dravet syndrome

## C=C(C)[C@@H]1CCC(C)=C[C@H]1c1c(O)cc(CCCCC)cc1O [Cannabidiol, 2-[(1R,6R)-6-Isopropenyl-3-methylcyclohex-2-en-1-yl]-5-pentylbenzene-1,3-diol]
5 mg/kg/day group (N = 10)
  Plasma concentration on Day 1 at starting CBD dose, 5 hours, Mean (SD): 10.0 (5.74) ng/mL
  Plasma concentration on Day 1 at starting CBD dose, […], Mean (SD): 37.6 (53.7) ng/mL
10 mg/kg/day group (N = 8)
  Plasma concentration on Day 1 at starting CBD dose, 5 hours, Mean (SD): 11.3 (11.7) ng/mL
  Plasma concentration on Day 1 at starting CBD dose, […], Mean (SD): 34.4 (32.1) ng/mL
20 mg/kg/day group (N = 9)
  Plasma concentration on Day 1 at starting CBD dose, 5 hours, Mean (SD): 25.3 (42.4) ng/mL
  Plasma concentration on Day 1 at starting CBD dose, […], Mean (SD): 29.3 (28.5) ng/mL
